Data reported in paper PMC4331368, “HZ08 Reverse P-Glycoprotein Mediated Multidrug Resistance In Vitro and In Vivo” (PLoS ONE, 2015).
“And” between values parts separate entries of the source, which are not always exact repeats. Identical values can stand only once.

Experiments:
KB-WT cells = experiment: Cell cytotoxicity assay (CCK-8), KB-WT; format: cell-based, human; conditions: for IC50: Homo sapiens
Experimental: (§1) Briefly, cells (2,000/well) were seeded in 96-well plate and cultured at 37°C in 5% CO2 for 24h. […] After 72 h of treatment, 15μL Cell Counting Kit-8 solution was added to each well followed by another 2 h of incubation. The absorbance at 450nm and 600nm were then measured using a SpectraMax M5 microplate reader. The curves of growth inhibition rate were fitted with GraphPad Prism 5 and the IC50 values were calculated. Each assay was conducted three times in quadruplicate

KB-VCR cells = experiment: Cell cytotoxicity assay (CCK-8), KB-VCR; format: cell-based, human; conditions: for IC50: Homo sapiens, 72 h; for IC50 / FR (fold-resistance): chemotherapeutic alone
Experimental: as §1

P-gp [1] = molecular target: T1, P-gp (Homo sapiens, UniProt P08183); experiment: MDCK-MDR1 monolayer transport assay; format: cell-based; conditions: dog
T1 construct: expressed in transfected cells; host or cells: MDCK-MDR1 cells (canine kidney cells)
T1 sequence (P08183 whole entry): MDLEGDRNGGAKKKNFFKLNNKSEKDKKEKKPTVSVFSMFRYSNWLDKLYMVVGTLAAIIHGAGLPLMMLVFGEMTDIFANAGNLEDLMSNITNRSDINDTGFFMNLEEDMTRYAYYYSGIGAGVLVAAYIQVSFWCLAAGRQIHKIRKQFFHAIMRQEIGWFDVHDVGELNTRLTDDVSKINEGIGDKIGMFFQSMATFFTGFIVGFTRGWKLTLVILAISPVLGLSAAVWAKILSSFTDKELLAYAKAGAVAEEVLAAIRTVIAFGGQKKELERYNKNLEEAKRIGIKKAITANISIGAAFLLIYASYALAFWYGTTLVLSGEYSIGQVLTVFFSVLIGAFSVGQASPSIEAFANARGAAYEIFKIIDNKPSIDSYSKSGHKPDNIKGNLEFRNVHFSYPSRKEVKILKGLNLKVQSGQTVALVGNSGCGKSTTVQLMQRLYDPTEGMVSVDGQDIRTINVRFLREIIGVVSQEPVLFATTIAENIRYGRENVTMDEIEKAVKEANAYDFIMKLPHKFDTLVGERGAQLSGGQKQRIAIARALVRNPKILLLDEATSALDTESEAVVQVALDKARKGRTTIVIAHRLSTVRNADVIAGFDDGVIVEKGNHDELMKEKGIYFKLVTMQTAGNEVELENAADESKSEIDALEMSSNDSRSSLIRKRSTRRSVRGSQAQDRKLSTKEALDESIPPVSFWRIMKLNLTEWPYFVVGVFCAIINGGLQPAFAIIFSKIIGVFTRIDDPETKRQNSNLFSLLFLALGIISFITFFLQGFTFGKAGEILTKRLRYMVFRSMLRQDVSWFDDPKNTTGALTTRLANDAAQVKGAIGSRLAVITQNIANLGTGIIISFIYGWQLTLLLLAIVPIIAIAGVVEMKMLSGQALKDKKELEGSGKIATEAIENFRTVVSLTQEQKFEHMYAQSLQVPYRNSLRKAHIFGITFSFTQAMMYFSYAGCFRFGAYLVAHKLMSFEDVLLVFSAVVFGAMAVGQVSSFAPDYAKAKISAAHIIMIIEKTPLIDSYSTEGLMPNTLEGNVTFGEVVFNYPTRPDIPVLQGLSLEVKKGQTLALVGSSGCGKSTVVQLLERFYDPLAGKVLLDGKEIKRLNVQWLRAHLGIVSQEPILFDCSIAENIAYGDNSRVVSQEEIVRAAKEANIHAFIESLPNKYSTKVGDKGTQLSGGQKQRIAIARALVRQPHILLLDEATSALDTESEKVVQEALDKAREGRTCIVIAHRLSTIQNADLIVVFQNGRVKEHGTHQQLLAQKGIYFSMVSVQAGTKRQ
Experimental: MDCK-MDR1 cells could differentiate into columnar epithelium with tight junctions in three days later to form cell monolayer. […] If a drug was a P-gp substrate, its permeation from apical side (A) to basal side (B) would be inhibited and reduced, while the permeation from B to A would not be affected. When a P-gp inhibitor was added, the permeation of P-gp substrate from A to B could be increased.
MDCK-MDR1 cells were cultured in Dulbecco's MEM (DMEM) Medium supplemented with 10% fetal bovine serum (FBS) and 2 mM L-glutamine. […] The plates were incubated at 37°C with 5% CO2/95% air for 4 days and subsequently used for assays. […] Plates were incubated for 90 min in 5% CO2/95% air, 37°C CO2 incubator with slowly shaking (60 rpm). Apical and basolateral compartments were sampled at the end of the transport experiment and the tested substance concentrations in both compartments were determined by LC-MS/MS.
The apparent permeability (Papp) and efflux ratio were calculated based on the equations reported previously.[33]

KB-WT xenografts = experiment: KB-WT tumor xenograft model; format: in vivo, Balb/c nude mice; conditions: day 21, mean±SEM
Text: (§2) All the animal experiments were approved by the Institutional Animal Care and Use Committee at China Pharmaceutical University (Permit Number: CPU1201P) and carried out in strict accordance with the recommendations in the Guide for the Care and Use of Laboratory Animals of AAALAC international. Animals were acclimated for 5 days prior to study initiation. […] If any animal was moribund due to treatment associated toxicity or tumor over-growth (≥ 2000 mm^3) before scheduled sacrifice, it would be euthanized. At the endpoint, the animals were euthanized by using CO2 and all efforts were made to minimize suffering.
(§3) Body weight and the tumor growth were monitored twice a week. Tumor size was measured to the nearest 0.1 mm using vernier caliper and applying the formula: Tumor volume = length × width^2 × 0.5. Efficacy data was graphically represented as the mean tumor volume ± standard error of the mean (SEM). Tumors were collected for further analysis after last measurement.

KB-VCR xenografts = experiment: KB-VCR tumor xenograft model; format: in vivo, Balb/c nude mice; conditions: for tumor weight / mean tumor volume: day 21
Text: as §2, §3

P-gp [2] = molecular target: T1, P-gp; experiment: Calcein-AM P-gp inhibition assay in MDCK-MDR1 cells; format: cell-based; conditions: 2μM GF120918 = 100%
Experimental: The calcein-AM assay was optimized from previous studies.[28, 29] MDCK-MDR1 cells were cultured as described above. Cells were seeded at 8,000 cells/well (100μl of culture medium) in 96-well flat clear bottom black polystyrene plates. The medium was changed 24h after seeding and the assay was performed 48 h later. On the day of study, the medium was removed and plates were washed three times with phosphate-buffered saline (PBS). Test compounds at various concentrations were added to plates in 50μl of transport buffer containing 0.5% DMSO as solvent. Plates were incubated at 37°C for 30 min. Calcein-AM was added in 50μl of PBS to yield a final concentration of 10μM.
P-gp inhibition was calculated as described previously.[29] The curves of inhibition rates were fitted with GraphPad Prism 5 and the IC50 values were calculated. Each assay was conducted three times in quadruplicate.

[3] = molecular target: T2, recombinant human ABCB1 membranes (Homo sapiens, UniProt P08183); experiment: P-gp ATPase activity assay (Pgp-Glo, VER-stimulated); format: biochemical
T2 construct: purchased
T2 sequence (P08183 whole entry): as above
Text: Sodium orthovanadate (Na3VO4) was used as an ABCB1 ATPase inhibitor. […] Luminescence was initiated by ATP detection buffer.

[4] = KB-WT, chemotherapeutic alone, 72 h
[5] = 2 mg/kg modulator + VCR 2 mg/kg
[6] = 5 mg/kg modulator + VCR 2 mg/kg

## COc1ccc(CCN(C)CCCC(C#N)(c2ccc(OC)c(OC)c2)C(C)C)cc1OC (stereo not shown) [VER, verapamil]
KB-WT cells; KB-WT, DOX + 10 μM modulator
  FR of DOX: 1.27
KB-WT cells; KB-WT, PTX + 10 μM modulator
  FR of PTX: 2.03
KB-WT cells; KB-WT, VCR + 10 μM modulator
  FR of VCR: 1.83
KB-VCR cells; DOX + 10 μM modulator
  FR of DOX: 3.21
KB-VCR cells; PTX + 10 μM modulator
  FR of PTX: 20.6
KB-VCR cells; VCR + 10 μM modulator
  FR of VCR: 82.74

## CC[C@]1(O)C[C@H]2CN(CCc3c([nH]c4ccccc34)[C@@](C(=O)OC)(c3cc4c(cc3OC)N(C=O)[C@H]3[C@@](O)(C(=O)OC)[C@H](OC(C)=O)[C@]5(CC)C=CCN6CC[C@]43[C@@H]65)C2)C1 [VCR, Vincristine]
P-gp [1]
  Papp A→B at 90 min, 1 μM: 0.32 ± 0.1 ×10⁻⁶ cm/s
  Papp B→A at 90 min, 1 μM: 1.99 ± 0.28 ×10⁻⁶ cm/s
KB-WT cells
  IC50: ~1.5 nM
KB-WT cells; [4]
  IC50: 1.5 ± 0.2 nM
KB-VCR cells
  IC50: 619 ± 158 nM
KB-WT xenografts; VCR 2 mg/kg weekly i.v. alone
  mean tumor volume: 1206.41±132.53 mm^3
KB-VCR xenografts; VCR 2 mg/kg alone
  tumor weight: 1.623 ± 0.233 g
KB-VCR xenografts; VCR 2 mg/kg weekly i.v. alone
  mean tumor volume: 2009.99±24.57 mm^3

## CC(=O)O[C@H]1C(=O)[C@@]2(C)[C@H]([C@H](OC(=O)c3ccccc3)[C@]3(O)C[C@H](OC(=O)[C@H](O)[C@@H](NC(=O)c4ccccc4)c4ccccc4)C(C)=C1C3(C)C)[C@]1(OC(C)=O)CO[C@@H]1C[C@@H]2O [PTX, paclitaxel]
KB-WT cells; [4]
  IC50: 3.7 ± 0.9 nM
KB-WT cells; KB-WT, chemotherapeutic alone
  FR (fold-resistance): 1.00
KB-VCR cells
  IC50: 194 ± 17.7 nM
  FR (fold-resistance): 1.00

## CCCCCCCCNC(=NC#N)N1CCc2cc(OC)c(OC)cc2C1Cc1ccc(OC)c(OC)c1 (stereo not shown) [HZ08]
P-gp [2]
  IC50: ~2440 nM and 2440 nM
[3]; VER 100μM + HZ08 0.625μM
  ATP consumed: 74.09±4.02 pmol ATP consumed/ μg P-gp / min
  Fold stimulation: 4.31
[3]; VER 100μM + HZ08 1.25μM
  ATP consumed: 73.10±1.34 pmol ATP consumed/ μg P-gp / min
  Fold stimulation: 4.26
[3]; VER 100μM + HZ08 5μM
  ATP consumed: 66.82±0.87 pmol ATP consumed/ μg P-gp / min
  Fold stimulation: 3.89
[3]; VER 100μM + HZ08 10μM
  ATP consumed: 63.11±1.71 pmol ATP consumed/ μg P-gp / min
  Fold stimulation: 3.67
[3]; VER 100μM + HZ08 20μM
  ATP consumed: 55.21±0.43 pmol ATP consumed/ μg P-gp / min
  Fold stimulation: 3.21
[3]; VER 100μM + HZ08 40μM
  ATP consumed: 41.25±3.00 pmol ATP consumed/ μg P-gp / min
  Fold stimulation: 2.40
[3]; VER 100μM + HZ08 80μM
  ATP consumed: 34.48±1.56 pmol ATP consumed/ μg P-gp / min
  Fold stimulation: 2.01
[3]; VER 100μM + HZ08 […]
  ATP consumed: 69.42±1.31 pmol ATP consumed/ μg P-gp / min
  Fold stimulation: 4.04
KB-WT cells; KB-WT, CCK-8, concentrations up to 20μM
  cytotoxicity as single agent: no cytotoxicity
KB-WT cells; KB-WT, DOX + 5 μM modulator
  FR of DOX: 0.83
KB-WT cells; KB-WT, DOX + 10 μM modulator
  FR of DOX: 1.19
KB-WT cells; KB-WT, PTX + 5 μM modulator
  FR of PTX: 1.97
KB-WT cells; KB-WT, PTX + 10 μM modulator
  FR of PTX: 2.68
KB-WT cells; KB-WT, VCR + 5 μM modulator
  FR of VCR: 1.65
KB-WT cells; KB-WT, VCR + 10 μM modulator
  FR of VCR: 3.67
KB-VCR cells; CCK-8, concentrations up to 20μM
  cytotoxicity as single agent: no cytotoxicity
KB-VCR cells; DOX + 5 μM modulator
  FR of DOX: 3.84
KB-VCR cells; DOX + 10 μM modulator
  FR of DOX: 4.78
KB-VCR cells; PTX + 5 μM modulator
  FR of PTX: 120.06
KB-VCR cells; PTX + 10 μM modulator
  FR of PTX: 131.04
KB-VCR cells; VCR + 5 μM modulator
  FR of VCR: 173.46
KB-VCR cells; VCR + 10 μM modulator
  FR of VCR: 246.35
KB-WT xenografts; [5]
  mean tumor volume: 1193.11±84.95 mm^3
  tumor weight: 1.050 ± 0.080 g
KB-WT xenografts; [6]
  mean tumor volume: 872.92±301.72 mm^3
  tumor weight: 0.845 ± 0.183 g
KB-VCR xenografts; [5]
  mean tumor volume: 1536.36±190.04 mm^3
  tumor weight: 1.222 ± 0.200 g
KB-VCR xenografts; 5 mg/kg modulator + VCR 2 mg/kg, compared with 2 mg/kg
  tumor inhibition (tumor volume): a higher tumor inhibition was observed
KB-VCR xenografts; [6]
  tumor weight: 0.954 ± 0.175 g

## COc1cccc2c1C(=O)c1c(O)c3c(c(O)c1C2=O)C[C@@](O)(C(=O)CO)C[C@@H]3O[C@H]1C[C@H](N)[C@H](O)[C@H](C)O1 [DOX, Doxorubicin]
KB-WT cells; [4]
  IC50: 47.3 ± 19.7 nM
KB-WT cells; KB-WT, chemotherapeutic alone
  FR (fold-resistance): 1.00
KB-VCR cells
  IC50: 245 ± 39.8 nM
  FR (fold-resistance): 1.00
